Here are results for two molecules from US20140200265A1, “USAGE OF 1,3,5,7-TETRAHYDROXY-8-ISOPRENYLXANTHONE FOR TREATING INFLAMMATION” (Hong Kong Baptist University, priority 2013, published 2014).

In assay [1] the test system is NO production in LPS and IFN-γ stimulated RAW264.7 cells. Nature of the assay: Assay for NO accumulation in stimulated macrophages (Griess reaction). The assay is classed as cell-based. The settings on record: Mus musculus, 24 hours; for IC50: 10 U/ml IFN-γ and 100 ng/ml LPS. The method, then:
RAW264.7 were maintained in RPMI 1640 medium supplemented with 10% FBS at 37° C. in a humidified 5% CO2 atmosphere. Cells were plated in a 96-well plate (5×10^3 cells/well) and allowed to attach overnight. The cells were then stimulated with 10 U/ml of IFN-γ and 100 ng/ml of LPS for 24 hours in the presence or absence of tested compound with final concentration of 50, 25, 12.5, 6.25, 3.125 μg/mL, and Indometacin as positive drug.
iNOS function was analyzed with Griess reaction and was applied for measurement of nitrite concentration in the culture supernatant. Briefly, 100 μl/well of sample was incubated with equal volume of Griess solution at room temperature for 10 min. The absorbance was evaluated at 540 nm using a calibration curve with a sodium nitrite standard. Percent inhibition was expressed as [1-(NO level of sample/NO level of vehicle treated-control)]×100 (Table 1).
In general terms: Griess reagent forms a coloured azo dye with nitrite.

In assay [2] the test system is miR-155 expression in stimulated RAW264.7 cells. The experiment in a line: Assay for microRNA155 expression in stimulated macrophages (qRT-PCR). The assay is classed as cell-based. The settings on record: RAW264.7 cells, 1, 2, 4 μg/mL, 24 hours, FIG. 2. The method, then:
RAW264.7 cells were pretreated with tested sample (1,2,4 μg/mL,) for 1 hour and then stimulated for 24 hours. The cells were harvested. Total RNA was extracted and RNA concentrations were determined. Quantitative RT-PCR analyses on miRNAs were performed using TaqMan miR NA assays (Applied Biosystems, USA). 50 ng of RNA per reaction was subjected for RT reaction. RT reaction was carried out using the following conditions: 16° C. for 30 minutes, 42° C. for 30 minutes, and 85° C. for 5 minutes. Expression levels of the miRNAs were determined by qRT-PCR using TaqMan Expression Assays (Applied Biosystems, USA). RNU6 endogenous control was used for normalization, and expression levels were presented as ΔCt with standard deviation (FIG. 2).
As miR-155 plays an important role in the innate immune response or inflammation, the effect of 1,3,5,7-tetrahydroxy-8-isoprenylxanthone on the expression of miR-155 by qRT-PCR was evaluated. In FIG. 2, the cells were stimulated with 100 ng/ml of LPS and 10 U/ml of IFN-γ only or LPS plus different concentrations (1,2,4 μg/mL) of sample for 24 hours. Total RNA was isolated and the expression of miRNA-155 was determined by qRT-PCR. […] RNU6B was used here as an endogenous control. The data represent the mean±SD of triplicate experiments. **p<0.01 compared with the LPS plus IFN-γ.
In general terms: In qPCR the cycle at which signal appears reflects the starting amount.

Assay [3] concerns Candida albicans secreted aspartic proteases (SAP). The settings on record: Planta Med. 2002; 68(1):49-54; cited from earlier work.

The structures appear in SMILES notation. Converted amounts (≈) assume the structure as drawn. Where two headings read alike, the source gives them in different places.

Take `CC(C)=CCc1c(O)cc(O)c2oc3cc(O)cc(O)c3c(=O)c12` [1,3,5,7-tetrahydroxy-8-isoprenylxanthone]: the IC50 in assay [1] (read-out: The inhibitory effect on NO accumulation, IC50) is 5.06 µM; in assay [1] (read-out: The inhibitory effect on NO accumulation, IC50(μg/mL)), 1.66 µg/mL. Also, the “Effect on LPS plus IFN-γ-induced miR-155 expression” value in assay [2] is “reduced LPS plus IFN-γ-induced miR-155 expression in a dose-dependent manner”. Moreover, in assay [3], the “IC50 against Candida albicans secreted aspartic proteases (SAP)” value was 25 µg/mL (≈ 76.1 µM).
With `COc1ccc2c(c1)c(CC(=O)O)c(C)n2C(=O)c1ccc(Cl)cc1` [Indometacin, reference compound], in assay [1] (1 μg/mL, IFN-γ and LPS, read-out: The inhibitory effect on NO accumulation (percent inhibition)), the inhibition at 1 µg/mL is 46.5%.

Broadly, the inhibition is the drop in the measured response relative to a control, in per cent.
